Consider 10 compounds from PubChem BioAssay AID1259407 (Chemical Carcinogenesis Research Information System (CCRIS), 2018).

Activity calls are given as the source filed them. How the calls were made is not given here.

This series concerns CCRIS mutagenicity, Ames/micronucleus/aberration tests. As to the kind of experiment: CCRIS mutagenicity studies.
Setting [1] is: Test System: AMES SALMONELLA TYPHIMURIUM, Strain/Indicator: TA98, Metabolic Activation: NONE, Method: STANDARD PLATE.
[2] abbreviates: Test System: AMES SALMONELLA TYPHIMURIUM, Strain/Indicator: TA100, Metabolic Activation: NONE, Method: STANDARD PLATE.
Setting [3] is: Test System: AMES SALMONELLA TYPHIMURIUM, Strain/Indicator: TA1535, Metabolic Activation: NONE, Method: STANDARD PLATE.
Where [4] appears, read: Test System: AMES SALMONELLA TYPHIMURIUM, Strain/Indicator: TA1537, Metabolic Activation: NONE, Method: STANDARD PLATE.
[5] abbreviates: Test System: AMES SALMONELLA TYPHIMURIUM, Strain/Indicator: TA98, Metabolic Activation: RAT, LIVER, S-9, AROCLOR 1254, Method: STANDARD PLATE.
The mark [6] stands for this setting: Test System: AMES SALMONELLA TYPHIMURIUM, Strain/Indicator: TA100, Metabolic Activation: RAT, LIVER, S-9, AROCLOR 1254, Method: STANDARD PLATE.

For `CC1=C(C(=O)Nc2ccccc2)SCCO1`, the mutagenic call is “inactive; negative” (Test System: AMES SALMONELLA TYPHIMURIUM, Strain/Indicator: TA97A, Metabolic Activation: NONE, Method: STANDARD PLATE); “inactive; negative” (Test System: AMES SALMONELLA TYPHIMURIUM, Strain/Indicator: TA97A, Metabolic Activation: PLANT, HOMOGENATE, S-14, Method: STANDARD PLATE); “inactive; negative” (Test System: AMES SALMONELLA TYPHIMURIUM, Strain/Indicator: TA97A, Metabolic Activation: S-9, Method: STANDARD PLATE); “inactive; negative” under setting [1]; “inactive; negative” (Test System: AMES SALMONELLA TYPHIMURIUM, Strain/Indicator: TA98, Metabolic Activation: PLANT, HOMOGENATE, S-14, Method: STANDARD PLATE); “inactive; negative” (Test System: AMES SALMONELLA TYPHIMURIUM, Strain/Indicator: TA98, Metabolic Activation: S-9, Method: STANDARD PLATE). In addition, the mutagenic call was “inactive; negative” under setting [2]; “inactive; negative” (Test System: AMES SALMONELLA TYPHIMURIUM, Strain/Indicator: TA100, Metabolic Activation: PLANT, HOMOGENATE, S-14, Method: STANDARD PLATE); “inactive; negative” (Test System: AMES SALMONELLA TYPHIMURIUM, Strain/Indicator: TA100, Metabolic Activation: S-9, Method: STANDARD PLATE); “inactive; negative” under setting [3]; “inactive; negative” (Test System: AMES SALMONELLA TYPHIMURIUM, Strain/Indicator: TA1535, Metabolic Activation: PLANT, HOMOGENATE, S-14, Method: STANDARD PLATE); “inactive; negative” (Test System: AMES SALMONELLA TYPHIMURIUM, Strain/Indicator: TA1535, Metabolic Activation: S-9, Method: STANDARD PLATE).

In the case of `COc1cc(-c2ccc(N/N=C3\C=Cc4c(S(=O)(=O)O)cc(S(=O)(=O)O)c(N)c4C3=O)c(OC)c2)ccc1N/N=C1/C=Cc2c(S(=O)(=O)O)cc(S(=O)(=O)O)c(N)c2C1=O`, the mutagenic call was “active; positive” (Test System: AMES SALMONELLA TYPHIMURIUM, Strain/Indicator: TA98, Metabolic Activation: HAMSTER, LIVER, S-9, Method: PREINCUBATION (PRIVAL METHOD)); “inactive; negative, test conducted under both aerobic and anaerobic conditions” (Test System: Ames Salmonella typhimurium, Strain/Indicator: TA98, Metabolic Activation: Rat, Liver, S-9, Sodium phenobarbitone, Method: Preincubation); “inactive; negative, test conducted under both aerobic and anaerobic conditions” (Test System: Ames Salmonella typhimurium, Strain/Indicator: TA1538, Metabolic Activation: Rat, Liver, S-9, Sodium phenobarbitone, Method: Preincubation).

For the compound `COc1cc(/C=C/C(=O)O[C@H]2CC[C@]34C[C@]35CC[C@]3(C)[C@@H]([C@H](C)CCC=C(C)C)CC[C@@]3(C)[C@@H]5CC[C@H]4C2(C)C)ccc1O`, the mutagenic call runs as follows: under setting [1], “inactive; negative”; (Test System: AMES SALMONELLA TYPHIMURIUM, Strain/Indicator: TA98, Metabolic Activation: S9, Method: STANDARD PLATE) “inactive; negative”; under setting [2], “inactive; negative”; (Test System: AMES SALMONELLA TYPHIMURIUM, Strain/Indicator: TA100, Metabolic Activation: S9, Method: STANDARD PLATE) “inactive; negative”; under setting [3], “inactive; negative”; (Test System: AMES SALMONELLA TYPHIMURIUM, Strain/Indicator: TA1535, Metabolic Activation: S9, Method: STANDARD PLATE) “inactive; negative”. Moreover, the mutagenic call reads like this: under setting [4], “inactive; negative”; (Test System: AMES SALMONELLA TYPHIMURIUM, Strain/Indicator: TA1537, Metabolic Activation: S9, Method: STANDARD PLATE) “inactive; negative”; (Test System: E.COLI, Strain/Indicator: WP2 UVRA, Metabolic Activation: NONE, Method: STANDARD PLATE) “inactive; negative”; (Test System: E.COLI, Strain/Indicator: WP2 UVRA, Metabolic Activation: S9, Method: STANDARD PLATE) “inactive; negative”.

Take `NC(=O)c1cccc2cccnc12`: the mutagenic call is “inactive; negative” under setting [1]; “inactive; negative” under setting [5]; “inactive; negative” under setting [2]; “active; positive” under setting [6]; “inactive; negative” under setting [3]; “inactive; negative” (Test System: AMES SALMONELLA TYPHIMURIUM, Strain/Indicator: TA1535, Metabolic Activation: RAT, LIVER, S-9, AROCLOR 1254, Method: STANDARD PLATE). Besides, the mutagenic call was “inactive; negative” under setting [4] and “inactive; negative” (Test System: AMES SALMONELLA TYPHIMURIUM, Strain/Indicator: TA1537, Metabolic Activation: RAT, LIVER, S-9, AROCLOR 1254, Method: STANDARD PLATE).

Consider `COC(=O)c1ccc([N+](=O)[O-])o1`, for which the mutagenic call by setting is: under setting [1], “active; positive”; under setting [2], “active; positive”.

On to `CC(=O)N(O)c1ccc(Oc2ccc(Cl)cc2)cc1`, for which the mutagenic call was “active; positive” (Test System: AMES SALMONELLA TYPHIMURIUM, Strain/Indicator: TA100, Metabolic Activation: GUINEA PIG, LIVER, MICROSOMAL FRACTION, PCB); “active; positive” (Test System: AMES SALMONELLA TYPHIMURIUM, Strain/Indicator: TA100, Metabolic Activation: GUINEA PIG, LIVER, S-9, PCB); “active; positive” (Test System: AMES SALMONELLA TYPHIMURIUM, Strain/Indicator: TA100, Metabolic Activation: GUINEA PIG, LIVER, S-105, PCB); “inactive; negative” under setting [2]; “active; positive” (Test System: AMES SALMONELLA TYPHIMURIUM, Strain/Indicator: TA100, Metabolic Activation: RAT, LIVER, S-9, KANECLOR 500, Method: STANDARD PLATE).

Take `NNc1nc(-c2ccc(N)cc2)cs1`: the mutagenic call was “active; positive” (Test System: AMES SALMONELLA TYPHIMURIUM, Strain/Indicator: TA98, Metabolic Activation: RAT, LIVER, S-9, KC500 OR PHENOBARBITAL, Method: LIQUID SUSPENSION) and “active; positive” (Test System: AMES SALMONELLA TYPHIMURIUM, Strain/Indicator: TA100, Metabolic Activation: RAT, LIVER, S-9, KC500 OR PHENOBARBITAL, Method: LIQUID SUSPENSION).

`CCC(=O)C(=O)CC`: under setting [2], the mutagenic call was “active; positive”.

With `O[Te](O)(O)(O)(O)O`, the mutagenic call (End Point: IN VITRO MICRONUCLEUS, Test System: HUMAN PERIPHERAL LYMPHOCYTES, Metabolic Activation: NONE, Method: FISH (CENTROMERIC SIGNAL CONTENT)) was “active; positive”.

For `CC(C)c1cc(N)cc([N+](=O)[O-])c1N`, the mutagenic call under setting [1] was “inactive; negative”; the mutagenic call under setting [5] was “inactive; negative”; the mutagenic call under setting [2] is “inactive; negative”; the mutagenic call under setting [6] was “inactive; negative”; the mutagenic call (Test System: AMES SALMONELLA TYPHIMURIUM, Strain/Indicator: TA1538, Metabolic Activation: NONE, Method: STANDARD PLATE) was “inactive; negative”; the mutagenic call (Test System: AMES SALMONELLA TYPHIMURIUM, Strain/Indicator: TA1538, Metabolic Activation: RAT, LIVER, S-9, AROCLOR 1254, Method: STANDARD PLATE) is “inactive; negative”.
